Measured values taken from PubChem BioAssay (NCI).
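In this assay, cells in 96-well plates receive the compound at five concentrations for 48 hours. Endpoints are linearly interpolated between the surrounding concentrations. TGI: concentration producing complete growth inhibition.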

How the values were obtained:
Assay in all cases: growth of human tumour cells (NCI), 48 h
MALME-3M melanoma = tested on: MALME-3M melanoma
MDA-MB-231 breast = tested on: MDA-MB-231 breast
SF-268 CNS = tested on: SF-268 CNS
MDA-N = tested on: MDA-N
MCF7 breast = tested on: MCF7 breast
SN12C renal = tested on: SN12C renal
OVCAR-4 ovarian = tested on: OVCAR-4 ovarian
RXF 393 renal = tested on: RXF 393 renal
SK-MEL-2 melanoma = tested on: SK-MEL-2 melanoma
HOP-62 NSCLC = tested on: HOP-62 NSCLC
MDA-MB-435 = tested on: MDA-MB-435
NCI-H522 lung = tested on: NCI-H522 lung
786-0 renal = tested on: 786-0 renal
ACHN renal = tested on: ACHN renal

Row | SMILES | TGI (MALME-3M melanoma) [µM] | TGI (MDA-MB-231 breast) [µM] | TGI (SF-268 CNS) [µM] | TGI (MDA-N) [µM] | TGI (MCF7 breast) [µM] | TGI (SN12C renal) [µM] | TGI (OVCAR-4 ovarian) [µM] | TGI (RXF 393 renal) [µM] | TGI (SK-MEL-2 melanoma) [µM] | TGI (HOP-62 NSCLC) [µM] | TGI (MDA-MB-435) [µM] | TGI (NCI-H522 lung) [µM] | TGI (786-0 renal) [µM] | TGI (ACHN renal) [µM]
1 | COc1cccc(/C=C\c2ccc(O)cc2)c1 | 65.9 | > 100 | > 96.7 | > 100 | > 100 | > 68.3 | > 100 | > 78.8 | 68.8 | > 100 | > 91.2 | 56.8 | 49.2 | > 89.2
2 | CN(CCCn1ccnc1[N+](=O)[O-])CCCn1ccnc1[N+](=O)[O-] | > 100 | > 100 | > 100 | > 100 | > 100 | > 100 | > 100 | > 100 | > 100 | > 100 | > 100 | > 100 | > 100 | > 100
3 | CC(=O)/C(C=Nc1c(C)n(C)n(C)c1=O)=C(/O)c1ccccc1 | > 50 | > 50 | > 50 | > 50 | > 50 | > 50 | > 50 | > 50 | > 50 | > 50 | > 50 | > 50 | > 50 | > 50
4 | C1CN2CCNCCN(CCN1)CC2 | > 100 | > 100 | > 100 | > 100 | > 100 | > 100 | > 100 | > 100 | > 100 | > 100 | > 100 | > 100 | > 100 | > 100
5 | Nc1nc(=S)n(-c2ccc(Cl)cc2)c2nc3ccccc3cc12 | > 100 | > 100 | > 100 | > 100 | > 100 | > 100 | > 100 | > 100 | > 100 | > 100 | > 100 | > 100 | > 100 | > 100
6 | COC(=O)C1=NN2c3ccccc3CN([C@@H](C)c3ccccc3)C(=O)[C@@H]2[C@H]1c1ccccc1 | > 100 | > 100 | > 100 | > 100 | > 100 | > 100 | > 100 | > 100 | > 100 | > 100 | > 100 | > 100 | > 100 | > 100
7 | S=C(N1CCN(c2ccccc2)CC1)N1CCN(c2ccccc2)CC1 | > 100 | > 100 | > 100 | > 100 | > 100 | > 100 | > 100 | > 100 | > 100 | > 100 | > 100 | > 100 | > 100 | > 100
8 | CCCCCCCCOC(=O)c1cc([N+](=O)[O-])c(Sc2ncnc3nc[nH]c23)c([N+](=O)[O-])c1 | 19.9 | > 31.6 | 8.47 | 22.5 | 12.1 | 7.34 | 13.5 | > 47.6 | 17.7 | 21.8 | > 38.4 | 2.41 | > 37.2 | 10.2
9 | CCCCc1c2c(c(C)c3c1C(=O)OC3)Oc1ccccc1O2 | > 100 | > 55.6 | > 100 | 0.456 | > 100 | 38.3 | > 95.6 | 7.98 | > 33.7 | > 68.3 | 1.59 | 1.15 | > 36.9 | > 100
10 | COc1ccc(/C=C/C(=O)c2ccc(OC(=O)/C=C/c3ccccc3)cc2)cc1 | > 100 | > 87.2 | > 68.1 | > 100 | > 100 | > 69.7 | 92.8 | > 100 | > 100 | > 100 | > 100 | 54.7 | 52.8 | > 100
11 | Cc1ccc(N2C(N)=C(C#N)C(C#N)(C#N)C2c2ccccc2)cc1 (stereo unspecified) | 27.8 | 25.3 | 65.9 | 12 | 18.8 | 30.9 | 26.9 | 25.3 | 38.2 | 36.9 | 14.1 | 21.5 | 30.3 | 28.2
12 | O=C1CC2SC(COCc3ccccc3)(CCN2Cc2ccccc2)C1 (stereo unspecified) | > 100 | > 100 | > 100 | > 100 | 81.9 | > 100 | > 100 | > 100 | > 100 | > 100 | > 100 | > 100 | > 100 | > 100
13 | O=c1oc2ccc3ccccc3c2cc1-c1nc2ccc([N+](=O)[O-])cc2o1 | > 100 | > 100 | > 90.2 | > 100 | > 31.4 | > 100 | > 100 | 19.1 | > 100 | > 45.2 | > 100 | > 100 | > 55.3 | > 24.2
14 | COc1cc(/C=N/NC2=NCCCCN2)ccc1O | > 100 | > 100 | > 100 | > 100 | > 100 | > 100 | > 100 | > 100 | > 100 | > 100 | > 100 | > 100 | > 100 | > 100
15 | Cc1csc(NNC(=O)Nc2ccccc2)n1 | > 100 | > 100 | > 100 | > 100 | > 100 | > 100 | > 100 | > 100 | > 100 | > 100 | > 100 | > 100 | > 100 | > 100
16 | O=c1c2c(F)c(F)c(F)c(F)c2sc2nccn12 | 35.4 | 35.9 | 36.2 | 29.4 | 37.9 | 33.3 | 35.8 | 32 | 38.5 | 42.3 | 28.6 | 37.2 | 29.3 | 30
17 | O=C(N/N=C/C=C/c1ccc([N+](=O)[O-])o1)c1ccc(C(=O)N/N=C/C=C/c2ccc([N+](=O)[O-])o2)cc1 | 35.2 | 97.3 | > 58.5 | > 84.8 | > 100 | > 54.5 | > 100 | 84 | > 100 | > 100 | > 73.8 | 89 | > 72.1 | > 59.1
18 | CCOC(=O)C(CCc1ncnc2c1ncn2Cc1ccccc1)(CCc1ncnc2c1ncn2Cc1ccccc1)C(=O)OCC | > 100 | > 100 | > 100 | > 100 | > 100 | > 100 | > 100 | > 100 | > 100 | > 100 | > 100 | > 100 | > 100 | > 100
19 | O=C(NCCCN1CCN(CCCNC(=O)Nc2cccc3ccccc23)CC1)Nc1cccc2ccccc12 | 11.8 | 8.21 | 38.8 | 30 | 36.4 | 30.7 | 44.1 | 27.6 | 34.2 | 23.9 | 31.4 | 33.4 | 34.1 | 30.1
